The numbers were not newly measured in patent US20100227030A1, “METHOD FOR THE CONSERVATION OF A PLANT MATERIAL” (priority 2007, published 2010), which cites them from elsewhere.

For the data set the following is noted: at 20° C.

As for `OC[C@H]1O[C@H](O[C@H]2O[C@H](CO)[C@@H](O)[C@H](O)[C@H]2O)[C@H](O)[C@@H](O)[C@@H]1O` [trehalose], the Maximal solubility was 68.9 g/100 g water.
